# In publication PMC6829886, “Inhibition of Non-Small Cell Lung Cancer Cells by Oxy210, an Oxysterol-Derivative that Antagonizes TGFβ and Hedgehog Signaling” (Cells, 2019):
# Key:
# A549 cells [1] = assay: Cell counting (proliferation) assay in A549 cells; format: cell-based, human; conditions: A549 cells, CP alone
# Protocol: A549 and H2030 cells cultured in RPMI 1640 containing 5% FBS in 12 well-plates at 20% confluence were treated with Oxy210 for 6 days and then trypsinized, spun down and resuspended in fresh medium. For the Carboplatin (CP) and Oxy210 co-treatment experiments, A549 cells cultured in RPMI 1640 containing 2% FBS in 12 well-plates at 20% confluence were treated with CP at different concentrations in the presence or absence of Oxy210 for 6 days. For the TGFβ-induced drug resistance assay, A549 cells cultured in RPMI 1640 containing 2% FBS in 12 well-plates at 10% confluence were pre-treated with TGFβ1 alone or together with Oxy210 for 3 days, and then treated with 20 μM CP for 4 days. An aliquot of cell suspension was applied to a hemocytometer and the cells were then counted under a light microscope.
# Statistical analyses were performed using the StatView 5 program (SAS Institute, Cary, NC, USA). All p values were calculated using ANOVA and Fisher’s projected least significant difference (PLSD) significance test. A value of p < 0.05 was considered significant. The IC 50 dose-response curves shown in Figure 4b and Figure 7a–c were modeled using a five-parameter logistic model. This model allows for asymmetric curves and automatically estimates the mean maximum and minimum response. Based on this model, IC 50 values were estimated corresponding to the dose halfway between min and max response. Models of dose versus response and dose versus log response were also evaluated (see Supplementary Materials). The R square statistic was computed as a measure of model fit.
# Figure 7 Inhibition of NSCLC cell proliferation by Oxy210. A549 (a), (c) and H2030 (b) cells were treated with the test agents as indicated in RPMI 1640 containing 5% FBS for 5 days and then were trypsinized and counted as described in Methods and Materials section. Data from a representative experiment are reported as the mean of triplicate determinations ± SD (* p < 0.05 vs. control; ** p < 0.01 vs. control).
# [2] = system: TGFβ signaling in NIH3T3-E1 cells; assay: TGFβ target gene expression (Q-RT-PCR) in NIH3T3 cells; format: cell-based, mouse; conditions: for expression of CTGF induced by TGFβ: NIH3T3 cells, TGFβ 20 ng/mL, 48 h (Figure 4e); for TGFβ inhibitory properties: statement in Discussion
# Protocol: Total RNA was extracted with the RNeasy Plus Mini Kit from Qiagen (Hilden, Germany) according to the manufacturer’s instructions. One microgram of RNA was reverse-transcribed using an iScript Reverse Transcription Supermix from Bio-Rad Laboratories (Hercules, CA, USA) to make single-stranded cDNA. The cDNAs were then mixed with Qi SYBR Green Supermix (Bio-Rad) for quantitative RT-PCR assay using a Bio-Rad I-cycler IQ quantitative thermocycler. All PCR samples were prepared in triplicate wells in a 96-well plate. After 40 cycles of PCR, melt curves were examined in order to ensure primer specificity. Fold changes in gene expression were calculated using the ΔΔCt method. Primers used for mouse were as follows: Oaz1 (5′-CCACTGCTTCGCCAGAGAG-3′) and (5′-CCCGGACCCAGGTTACTA-3′), Gli1 (5′- […]-3′ and 5′- GCT GATCCAGCCTAAGGTTCTC-3′), Ptch1 (5′-CCATCGGCGACAAGAACC-3′ and 5′-[…]-3′), Thbs1 (5′-[…]-3′ and 5′-CGGGGATCAGGTTGGCATT-3′), Cryab (5′-[…]-3′ and 5′-[…]-3′), Egr2 (5′-[…]-3′ and 5′-[…]-3′), CTGF (5′-GGGCCTCTTCTGCGATTTC-3′ and 5′-[…]-3′).
# Figure 4 Inhibition of ligand-induced Hedgehog and TGFβ signaling in mouse fibroblast cells. NIH3T3 cells were pretreated for 2 h with Oxy210 or various inhibitors as indicated in DMEM containing 5% FBS. Next, cells were treated with CAPAN-1 conditioned medium (CM) in the absence or presence of oxysterols or inhibitors. After 72 h, RNA was extracted and analyzed by Q-RT-PCR for the expression of Hh target genes Gli1 and Ptch1 and normalized to Oaz1 expression (a,b). (c,e) NIH3T3 cells were treated in DMEM containing 0.1% BCS overnight and then pretreated for 2 h with the inhibitors as indicated in DMEM containing 0.1%BCS. The cells were then treated with TGFβ (20ng/mL) in the absence or presence of the compounds. After 48 h, RNA was extracted and analyzed by Q-RT-PCR for the expression of TGFβ target genes as indicated and normalized to Oaz1 expression. (d) NIH3T3 cells cultured in 24 well-plates were transfected with a Smad response element reporter (SBE-Luciferase) plasmid and a pTK-Renilla-Luciferase plasmid. 6 hrs after transfection, cells were treated with the test agents as indicated for 48 hrs. Luciferase activity was measured and normalized to the Renilla luciferase activity. Data from a representative experiment are reported as the mean of triplicate determinations ± SD (** p < 0.01 vs. CM (a,b) or TGFβ (c,d and e) treated cells; ## p < 0.01 vs. control).
# [3] = Metabolic stability in human liver microsomes; format: in vitro ADME
# [4] = Metabolic stability in mouse liver microsomes; format: in vitro ADME
# Smo = system: Smo; set-up: method as in PMID 24591126; conditions: cited from earlier work
# Human TGFBR1 = target: T1, Human TGFBR1 (Homo sapiens, UniProt P36897); assay: TGFβ receptor I kinase inhibition assay (Eurofins); format: biochemical; conditions: vs. positive controls Cdk1/2 Inhibitor III and PKR Inhibitor
# T1 construct: Human TGFBR1 (amino acid 200 to end); purchased Eurofins
# T1 sequence (P36897 200-503 limits assumed): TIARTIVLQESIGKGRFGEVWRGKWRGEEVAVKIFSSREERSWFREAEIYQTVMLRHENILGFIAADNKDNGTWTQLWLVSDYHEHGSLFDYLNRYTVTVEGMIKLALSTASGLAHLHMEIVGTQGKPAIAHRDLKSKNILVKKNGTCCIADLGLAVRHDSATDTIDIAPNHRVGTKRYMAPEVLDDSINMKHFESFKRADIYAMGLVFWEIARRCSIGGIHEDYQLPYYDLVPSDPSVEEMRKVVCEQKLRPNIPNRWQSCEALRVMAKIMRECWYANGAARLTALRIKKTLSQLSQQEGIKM
# Protocol: (§1) Effect of Oxy210 on inhibition of TGFβ receptors I and II kinase activity was assessed by Eurofins (Celle-L’Evescault, France). TGFBR1 (h): Human TGFBR1 (amino acid 200 to end) was incubated with 8 mM MOPS pH 7.0, 0.2 mM EDTA, 1 mM MnCl2, 2 mg/mL casein, 10 mM Magnesium acetate and […] (specific activity and concentration as required). The reaction was initiated by the addition of the Mg/ATP mix. After incubation for 40 min at room temperature, the reaction was stopped by the addition of phosphoric acid to a concentration of 0.5%. 10 μL of the reaction was then spotted onto a P30 filtermat and washed four times for 4 min in 0.425% phosphoric acid and once in methanol prior to drying and scintillation counting. TGFBR2 (h): Human TGFBR2 (amino acid 188-end) was incubated with 20 mM Tris/HCl pH 8.5, 0.2 mM EDTA, 0.33 mg/mL MBP, 10 mM Magnesium acetate and [9-33P-ATP] (specific activity and concentration as required). The reaction was initiated by the addition of the Mg/ATP mix. After incubation for 120 min at room temperature, the reaction was stopped by the addition of phosphoric acid to a concentration of 0.5%. […]
# (§2) Figure 11 Inhibition of TGFβ-induced Smad2/3 phosphorylation and transcriptional activity. […] Luciferase activity was measured and normalized to the Renilla luciferase activity. […]
# Human TGFBR2 = target: T2, Human TGFBR2 (Homo sapiens, UniProt P37173); assay: TGFβ receptor II kinase inhibition assay (Eurofins); format: biochemical; conditions: vs. positive controls Cdk1/2 Inhibitor III and PKR Inhibitor
# T2 construct: Human TGFBR2 (amino acid 188-end); purchased Eurofins
# T2 sequence (P37173 188-567 limits assumed): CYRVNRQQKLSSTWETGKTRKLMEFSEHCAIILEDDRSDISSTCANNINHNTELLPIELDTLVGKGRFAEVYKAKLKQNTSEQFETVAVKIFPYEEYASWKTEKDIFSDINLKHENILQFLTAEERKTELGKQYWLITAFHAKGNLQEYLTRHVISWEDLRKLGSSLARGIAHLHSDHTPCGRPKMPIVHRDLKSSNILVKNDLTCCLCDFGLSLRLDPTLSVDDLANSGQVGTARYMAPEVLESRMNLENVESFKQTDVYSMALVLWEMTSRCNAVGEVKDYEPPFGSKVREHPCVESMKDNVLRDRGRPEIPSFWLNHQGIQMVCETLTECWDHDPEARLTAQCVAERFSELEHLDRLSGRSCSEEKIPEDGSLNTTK
# Protocol: as §1, §2
# A549 cells [5] = system: A549 cells; set-up: method as in PMID 15967103; conditions: consistent with own observations; cited from earlier work
# [6] = system: TGFβ induced activity of SBE-luciferase reporter; assay: SBE-luciferase (Smad response-element) reporter assay in NIH3T3-E1 cells; format: cell-based, mouse; conditions: 48 hrs
# Protocol: NIH3T3-E1 cells cultured in 24 well-plates at 90% confluence were transiently transfected with 0.1 μg of Smad response-element reporter (SBE-Luciferase) plasmid (Qiagen), or with 0.1 μg of Gli response-element reporter (pGL3b-8xGli-Luciferase) plasmid, and 10 ng of pSV40-Renilla-Luciferase plasmid (Promega, Madison, WI, USA) with or without co-transfection with 10ng of Gli1 overexpression vector, pSRα-Gli1 using a Lipofectamine LTX Plus transfection reagent, as previously described [23]. […] 6 hrs after transfection, cells were treated with test agents for 72 h. […] Twenty-four hours after transfection, cells were treated with test agents for 20 h. Then the firefly and Renilla luciferase activities were measured using a dual luciferase kit (Promega) and a GloMax-96 Microplate Luminometer (Promega) or a plate reader-SpectraMax iD3 (Molecular Devices, San Jose, CA, USA). The firefly luciferase activities were normalized to the Renilla luciferase activities.
compound,measurement,setting,value
"[NH2][Pt]1([NH2])[O]C(=O)C2(CCC2)C(=O)[O]1 [CP, Carboplatin, reference compound]","IC10 Estimate, dataset 4.1 - Fig 7c - CP",A549 cells [1]; original scale Y,0.66 µM
same,IC90,"A549 cells [1]; original scale Y, read-out: IC90 Estimate, dataset 4.1 - Fig 7c - CP",40.7 µM
same,IC50,"A549 cells [1]; ± SE, read-out: IC50 of CP",6.72 ± 0.72 µM
CS(=O)(=O)c1ccc(C(=O)Nc2ccc(Cl)c(-c3ccccn3)c2)c(Cl)c1 [GDC0449],expression of CTGF induced by TGFβ,[2],only Oxy210 robustly inhibited
"CC(C)CC[C@@H](O)[C@](C)(O)[C@H]1CC[C@H]2[C@@H]3CC=C4C[C@@H](O)CC[C@]4(C)[C@H]3CC[C@]12C [Oxy16, (2R,3R)-2-((3S,8S,9S,10R,13S,14S,17S)-3-hydroxy-10,13-dimethyl-2,3,4,7,8,9,10,11,12,13,14,15,16,17-tetradecahydro-1H-cyclopenta[a]phenanthren-17-yl)-6-methylheptane-2,3-diol, reference compound]",half-life,"[3]; human, liver microsomes, read-out: HLM, Half-Life",< 15 min
same,remaining at 1 h,"[3]; read-out: HLM, % Remaining after 60 min",6%
same,remaining at 1 h,"[4]; read-out: MLM, % Remaining after 60 min",5%
same,half-life,"[4]; read-out: MLM, Half-Life",14 min
same,TGFβ inhibitory properties,[2],devoid of TGFβ inhibitory properties
same,Smo binding affinity,Smo,lack of detectable Smo binding affinity
"C[C@]12CC[C@H](O)C[C@@H]1CC[C@@H]1[C@@H]2CC[C@@]2(C)[C@H]1CC[C@@H]2[C@](C)(O)CCc1ccc(F)cc1 [Oxy186, reference compound]",expression of CTGF induced by TGFβ,[2],only Oxy210 robustly inhibited
same,TGFβ inhibitory properties,[2],devoid of TGFβ inhibitory properties
same,inhibitory activity on TβRI in functional kinase assay,Human TGFBR1,did not display significant inhibitory activity
same,inhibitory activity on TβRII in functional kinase assay,Human TGFBR2,did not display significant inhibitory activity
"NC(=O)c1ccc(-c2nc(-c3ccc4c(c3)OCO4)c(-c3ccccn3)[nH]2)cc1 [SB431542, reference compound]",effect on proliferation of A549 cells,A549 cells [5],does not lessen the proliferation of A549 cells
same,TGFβ induced activity of SBE-luciferase reporter,[6],significantly inhibited
